Measured values: patent publication US10499642B2, “Isoxazoline-substituted benzamides and analogues as insecticides” (SYNGENTA PARTICIPATIONS AG, priority 2015, dated 2019)
Where two headings read alike, the source gives them in different places.

How the values were obtained:
Type in all cases: in vivo
Spodoptera littoralis = Spodoptera littoralis (Egyptian cotton leaf worm) cotton leaf disc test; settings: foliar, 72 h, read-out: control (at least one of mortality, anti-feedant effect, and growth inhibition)
Summary of the method: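 Cotton leaf discs on agar were sprayed with aqueous dilutions of 10′000 ppm DMSO stocks, dried and infested with five L1 larvae. Mortality, anti-feedant effect and growth inhibition were scored against untreated samples 3 days after infestation. Control = any of these higher than untreated.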

Plutella xylostella = Plutella xylostella (diamond back moth) artificial diet test; settings: 120 h, read-out: effect in at least one of the two categories (mortality or growth inhibition)
Summary of the method: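 Artificial diet treated with aqueous compound solutions made from DMSO stocks, dried, then infested with L2 larvae (10 to 15 per well). Mortality and growth inhibition scored versus untreated controls 5 days after infestation. Application rate 200 ppm.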

Thrips tabaci = Thrips tabaci (onion thrips) sunflower leaf disc test; settings: foliar, 144 h
Protocol: Thrips tabaci (Onion Thrips):
(§1) Sunflower leaf discs were placed on agar in 24-well microtiter plates and sprayed with aqueous test solutions prepared from 10′000 ppm DMSO stock solutions. After drying the leaf discs were infested with a thrips population of mixed ages. The samples were assessed for mortality 6 days after infestation.

Diabrotica Balteata = experiment: Diabrotica balteata (corn root worm) maize sprout test; settings: 96 h, read-out: effect in at least one of the two categories (mortality or growth inhibition)
Summary of the method: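 Maize sprouts on agar were sprayed with aqueous test solutions made from 10′000 ppm DMSO stocks, dried, then infested with 6 to 10 L2 larvae per well. Mortality and growth inhibition versus untreated samples were assessed 4 days after infestation; application rate 200 ppm.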

Tetranychus urticae = Tetranychus urticae (two-spotted spider mite) bean leaf disc test; settings: foliar, 192 h
Protocol: Tetranychus urticae (Two-Spotted Spider Mite):
as §1, with “Bean” for “Sunflower”, “discs” for “discs were placed”, “were” for “and”, “mite” for “thrips”, “on mixed population (mobile stages) 8” for “6”

Myzus persicae = Myzus persicae (green peach aphid) sunflower leaf disc test; settings: foliar, 144 h
Protocol: Myzus persicae (Green Peach Aphid):
Sunflower leaf discs were placed on agar in a 24-well microtiter plate and sprayed with test solutions at an application rate of 200 ppm. After drying, the leaf discs were infested with an aphid population of mixed ages. After an incubation period of 6 days after treatment, samples were checked for mortality. The following compounds gave at least 80% mortality of Myzus persicae: […]

[1] = application rate 200 ppm, cotton leaf discs, L1 larvae, 3 days after infestation
[2] = application rate 200 ppm, artificial diet, L2 larvae, 5 days after infestation
[3] = application rate 200 ppm, sunflower leaf discs, population of mixed ages, 6 days after infestation, read-out: mortality
[4] = application rate 200 ppm, maize sprouts, L2 larvae, 4 days after infestation
[5] = application rate 200 ppm, bean leaf discs, mixed population (mobile stages), 8 days after infestation, read-out: mortality
[6] = application rate 200 ppm, sunflower leaf discs, population of mixed ages, 6 days after treatment, read-out: mortality

Cc1cc(C2=NO[C@@](c3cc(Br)cc(C(F)(F)F)c3)(C(F)(F)F)C2)ccc1C(=O)NC1CC(Cl)=NO1 (stereo partly drawn) [Compound A021, 4-[(5S)-5-[3-bromo-5-(trifluoromethyl)phenyl]-5-(trifluoromethyl)-4H-isoxazol-3-yl]-N-(3-chloro-4,5-dihydroisoxazol-5-yl)-2-methyl-benzamide]
≥ 80%: percent control (mortality, anti-feedant effect or growth inhibition) at 200 ppm (Spodoptera littoralis; [1]) | percent effect (mortality or growth inhibition) at 200 ppm (Plutella xylostella; [2]) | mortality at 200 ppm (Thrips tabaci; [3]) | percent effect (mortality or growth inhibition) at 200 ppm (Diabrotica Balteata; [4]) | mortality at 200 ppm (Tetranychus urticae; [5]) | mortality at 200 ppm (Myzus persicae; [6])

CCC1=NOC(N(C=O)C(=O)c2ccc(C3=NO[C@@](c4cc(Cl)c(F)c(Cl)c4)(C(F)(F)F)C3)cc2C)C1 (stereo partly drawn) [Compound A022, 4-[(5S)-5-(3,5-dichloro-4-fluoro-phenyl)-5-(trifluoromethyl)-4H-isoxazol-3-yl]-N-(3-ethyl-4,5-dihydroisoxazol-5-yl)-N-formyl-2-methyl-benzamide]
≥ 80%: percent control (mortality, anti-feedant effect or growth inhibition) at 200 ppm (Spodoptera littoralis) | percent effect (mortality or growth inhibition) at 200 ppm (Plutella xylostella) | mortality at 200 ppm (Thrips tabaci) | percent effect (mortality or growth inhibition) at 200 ppm (Diabrotica Balteata) | mortality at 200 ppm (Tetranychus urticae) | mortality at 200 ppm (Myzus persicae)

CC1=NOC(N(C=O)C(=O)c2ccc(C3=NO[C@@](c4cc(Cl)c(Cl)c(Cl)c4)(C(F)(F)F)C3)cc2C)C1 (stereo partly drawn) [Compound A023, N-formyl-2-methyl-N-(3-methyl-4,5-dihydroisoxazol-5-yl)-4-[(5S)-5-(3,4,5-trichlorophenyl)-5-(trifluoromethyl)-4H-isoxazol-3-yl]benzamide]
≥ 80%: percent control (mortality, anti-feedant effect or growth inhibition) at 200 ppm (Spodoptera littoralis) | percent effect (mortality or growth inhibition) at 200 ppm (Plutella xylostella) | mortality at 200 ppm (Thrips tabaci) | percent effect (mortality or growth inhibition) at 200 ppm (Diabrotica Balteata) | mortality at 200 ppm (Tetranychus urticae) | mortality at 200 ppm (Myzus persicae)

CC1=NOC(N(C=O)C(=O)c2ccc(C3=NO[C@@](c4cc(Cl)c(Cl)c(Cl)c4)(C(F)(F)F)C3)cc2Cl)C1 (stereo partly drawn) [Compound A024, 2-chloro-N-formyl-N-(3-methyl-4,5-dihydroisoxazol-5-yl)-4-[(5S)-5-(3,4,5-trichlorophenyl)-5-(trifluoromethyl)-4H-isoxazol-3-yl]benzamide]
≥ 80%: percent control (mortality, anti-feedant effect or growth inhibition) at 200 ppm (Spodoptera littoralis) | percent effect (mortality or growth inhibition) at 200 ppm (Plutella xylostella) | mortality at 200 ppm (Thrips tabaci) | percent effect (mortality or growth inhibition) at 200 ppm (Diabrotica Balteata) | mortality at 200 ppm (Tetranychus urticae) | mortality at 200 ppm (Myzus persicae)

CC1=NOC(NC(=O)c2ccc(C3=NO[C@@](c4cc(Cl)c(Cl)c(Cl)c4)(C(F)(F)F)C3)cc2Cl)C1 (stereo partly drawn) [Compound A025, 2-chloro-N-(3-methyl-4,5-dihydroisoxazol-5-yl)-4-[(5S)-5-(3,4,5-trichlorophenyl)-5-(trifluoromethyl)-4H-isoxazol-3-yl]benzamide]
≥ 80%: percent control (mortality, anti-feedant effect or growth inhibition) at 200 ppm (Spodoptera littoralis) | percent effect (mortality or growth inhibition) at 200 ppm (Plutella xylostella) | mortality at 200 ppm (Thrips tabaci) | percent effect (mortality or growth inhibition) at 200 ppm (Diabrotica Balteata) | mortality at 200 ppm (Tetranychus urticae) | mortality at 200 ppm (Myzus persicae)

CCC1=NOC(NC(=O)c2ccc(C3=NO[C@@](c4cc(Cl)c(F)c(Cl)c4)(C(F)(F)F)C3)cc2C)C1 (stereo partly drawn) [Compound A026, 4-[(5S)-5-(3,5-dichloro-4-fluoro-phenyl)-5-(trifluoromethyl)-4H-isoxazol-3-yl]-N-(3-ethyl-4,5-dihydroisoxazol-5-yl)-2-methyl-benzamide]
≥ 80%: percent control (mortality, anti-feedant effect or growth inhibition) at 200 ppm (Spodoptera littoralis) | percent effect (mortality or growth inhibition) at 200 ppm (Plutella xylostella) | mortality at 200 ppm (Thrips tabaci) | percent effect (mortality or growth inhibition) at 200 ppm (Diabrotica Balteata) | mortality at 200 ppm (Tetranychus urticae) | mortality at 200 ppm (Myzus persicae)

CC1=NOC(NC(=O)c2ccc(C3=NO[C@@](c4cc(Cl)c(Cl)c(Cl)c4)(C(F)(F)F)C3)cc2C)C1 (stereo partly drawn) [Compound A027, 2-methyl-N-(3-methyl-4,5-dihydroisoxazol-5-yl)-4-[(5S)-5-(3,4,5-trichlorophenyl)-5-(trifluoromethyl)-4H-isoxazol-3-yl]benzamide]
≥ 80%: percent control (mortality, anti-feedant effect or growth inhibition) at 200 ppm (Spodoptera littoralis) | percent effect (mortality or growth inhibition) at 200 ppm (Plutella xylostella) | mortality at 200 ppm (Thrips tabaci) | percent effect (mortality or growth inhibition) at 200 ppm (Diabrotica Balteata) | mortality at 200 ppm (Tetranychus urticae) | mortality at 200 ppm (Myzus persicae)

CC1=NOC(NC(=O)c2ccc(C3=NO[C@@](c4cc(Cl)cc(C(F)(F)F)c4)(C(F)(F)F)C3)cc2C)C1 (stereo partly drawn) [Compound A028, 4-[(5S)-5-[3-chloro-5-(trifluoromethyl)phenyl]-5-(trifluoromethyl)-4H-isoxazol-3-yl]-2-methyl-N-(3-methyl-4,5-dihydroisoxazol-5-yl)benzamide]
≥ 80%: percent control (mortality, anti-feedant effect or growth inhibition) at 200 ppm (Spodoptera littoralis) | percent effect (mortality or growth inhibition) at 200 ppm (Plutella xylostella) | mortality at 200 ppm (Thrips tabaci) | percent effect (mortality or growth inhibition) at 200 ppm (Diabrotica Balteata) | mortality at 200 ppm (Tetranychus urticae) | mortality at 200 ppm (Myzus persicae)

CC1=NOC(NC(=O)c2ccc(C3=NO[C@@](c4cc(Br)cc(C(F)(F)F)c4)(C(F)(F)F)C3)cc2C)C1 (stereo partly drawn) [Compound A029, 4-[(5S)-5-[3-bromo-5-(trifluoromethyl)phenyl]-5-(trifluoromethyl)-4H-isoxazol-3-yl]-2-methyl-N-(3-methyl-4,5-dihydroisoxazol-5-yl)benzamide]
≥ 80%: percent control (mortality, anti-feedant effect or growth inhibition) at 200 ppm (Spodoptera littoralis; [1]) | percent effect (mortality or growth inhibition) at 200 ppm (Plutella xylostella; [2]) | mortality at 200 ppm (Thrips tabaci; [3]) | percent effect (mortality or growth inhibition) at 200 ppm (Diabrotica Balteata; [4]) | mortality at 200 ppm (Tetranychus urticae; [5]) | mortality at 200 ppm (Myzus persicae; [6])

COC1=NOC(NC(=O)c2ccc(C3=NO[C@@](c4cc(Cl)c(F)c(Cl)c4)(C(F)(F)F)C3)cc2C)C1 (stereo partly drawn) [Compound A030, 4-[(5S)-5-(3,5-dichloro-4-fluoro-phenyl)-5-(trifluoromethyl)-4H-isoxazol-3-yl]-N-(3-methoxy-4,5-dihydroisoxazol-5-yl)-2-methyl-benzamide]
≥ 80%: percent control (mortality, anti-feedant effect or growth inhibition) at 200 ppm (Spodoptera littoralis) | percent effect (mortality or growth inhibition) at 200 ppm (Plutella xylostella) | mortality at 200 ppm (Thrips tabaci) | percent effect (mortality or growth inhibition) at 200 ppm (Diabrotica Balteata) | mortality at 200 ppm (Tetranychus urticae) | mortality at 200 ppm (Myzus persicae)

Cc1cc(C2=NO[C@@](c3cc(Cl)c(F)c(Cl)c3)(C(F)(F)F)C2)ccc1C(=O)N(C=O)C1CC(C2CC2)=NO1 (stereo partly drawn) [Compound A031, N-(3-cyclopropyl-4,5-dihydroisoxazol-5-yl)-4-[(5S)-5-(3,5-dichloro-4-fluoro-phenyl)-5-(trifluoromethyl)-4H-isoxazol-3-yl]-N-formyl-2-methyl-benzamide]
≥ 80%: percent control (mortality, anti-feedant effect or growth inhibition) at 200 ppm (Spodoptera littoralis) | percent effect (mortality or growth inhibition) at 200 ppm (Plutella xylostella) | mortality at 200 ppm (Thrips tabaci) | percent effect (mortality or growth inhibition) at 200 ppm (Diabrotica Balteata) | mortality at 200 ppm (Tetranychus urticae) | mortality at 200 ppm (Myzus persicae)

Cc1cc(C2=NO[C@@](c3cc(Cl)c(F)c(Cl)c3)(C(F)(F)F)C2)ccc1C(=O)NC1CC(C2CC2)=NO1 (stereo partly drawn) [Compound A032, N-(3-cyclopropyl-4,5-dihydroisoxazol-5-yl)-4-[(5S)-5-(3,5-dichloro-4-fluoro-phenyl)-5-(trifluoromethyl)-4H-isoxazol-3-yl]-2-methyl-benzamide]
≥ 80%: percent control (mortality, anti-feedant effect or growth inhibition) at 200 ppm (Spodoptera littoralis) | percent effect (mortality or growth inhibition) at 200 ppm (Plutella xylostella) | mortality at 200 ppm (Thrips tabaci) | percent effect (mortality or growth inhibition) at 200 ppm (Diabrotica Balteata) | mortality at 200 ppm (Tetranychus urticae) | mortality at 200 ppm (Myzus persicae)
